Experiment [1] concerns citrated pooled normal human blood. In words: Thromboelastography (TEG) of citrated pooled normal human blood. As to conditions: for Angle / K / MA (maximal amplitude) / R (time to clot formation) / SP / thrombus strength (maximal amplitude, MA), in words / time to clot formation (R), in words: 5 μg/ml with calcium; for Angle / K / MA (maximal amplitude) / R (time to clot formation) / SP: blood left 4 hours at room temperature, representative TEG curve FIG. 1B; for thrombus strength (maximal amplitude, MA), in words / time to clot formation (R), in words: vs control. As for the experimental part:
FIGS. 1A-1C include vertical bar graphs and thromboelastography (TEG) curves, showing that peptide 16 and peptide 16AC increase coagulation. Peptide 16 and 16AC were studied in an assay of purified proteins that included lipidated TF (4 nM), factor VIIa (40 nM), factor X (1.4 μM) and assay buffer. Factor X activated form (Xa) level was studied using a chromogenic substrate (1 mM). […] Bovine factor Xa diluted in the assay buffer was used to generate a standard curve. Without addition of TF (two right columns), no factor Xa was generated. […] (1B) A citrated pooled normal human blood sample (n=3) was left for 4 hours at room temperature in order to expose TF in bloods cells. Following this period, the peptides 16 and 16AC were added (5 μg/ml) along with calcium. […] Representative TEG curves are shown. (1C) The study presented in FIG. 1B was repeated 3 times with different pooled plasma. […] Peptide 16 (non-modified); peptide 16 comprising a C-terminal amid group (16A); peptide 16 comprising an N-terminal acetyl group (16C); and peptide 16 comprising a C-terminal amid group and an N-terminal acetyl group (16AC). In 1B: for control—SP min=11.2; R min=12.8; K min=3.8, Angle deg=52.0; and MA mm=47.9, for Peptide 16—SP min=5.2; R min=6.4; K min=2.8, Angle deg=63.3; and MA mm=50.4, and for Peptide 16AC—SP min=4.7; R min=5.6; K min=2.5, Angle deg=63.1; and MA mm=53.8.
A citrated pooled normal human blood sample (n=3) was left for 4 hours at room temperature in order to expose TF in bloods cells. Following this period, the peptides 16 and 16AC were added (5 μg/ml) along with calcium. […] Representative images are shown (FIG. 1B). The study from B section was repeated 3 times with different pooled blood.

In experiment [2] the test system is human umbilical vein endothelial cells (HUVEC). In words: HUVEC proliferation, XTT assay. The experiment is classed as cell-based. The following applies: 2.5 μg/ml and 5 μg/ml; 48 hour; FIG. 5A. As for the experimental part: FIGS. 5A-5B include vertical bar graphs showing that heparanase procoagulant peptides induce human umbilical vein endothelial cells (HUVEC) proliferation. (5A) HUVEC cells were seeded in 96 wells plate (5,000 cells/well). Increasing concentration of peptides 16 and 16AC (2.5 μg/ml, and 5 μg/ml) were added to the cells. […] (5B) Similar experiment as described in 5A, but 10 ng/ml of peptide 7 (TFPI-2 derived inhibitory peptide) was added to the cells for 1 hour prior to the addition of peptide 16 (5 μg/ml) or 16AC (5 μg/ml).
Briefly, HUVEC cells were seeded in 96 wells plate (5,000 cells/well). Increasing concentration of peptides 16 and 16AC (2.5 μg/ml, and 5 μg/ml) were added to the cells.
A general note: Formazan colour is commonly taken as a measure of viable cells.

In experiment [3] the test system is HEK-293 cells with full length TF (TF) or truncated TF. In words: p-p38 signaling in TF-transfected HEK-293 cells (western blot). The class given is cell-based. As to conditions: 2 hours; cells with truncated TF devoid of the intracellular part. As for the experimental part: FIG. 12 includes a vertical bar graph and a micrograph of a western blot analysis. Procoagulant peptide 16AC was added for 2 hours to transfected HEK-293 cells with full length TF (TF) or truncated TF devoid of the intracellular part (ΔTF). […] Control—vector only (Vo); transfection with the empty plasmid, with no additional DNA.
Additionally, the inventor explored binding interaction between the procoagulant peptide of the invention and TF. Briefly, the procoagulant peptide 16AC was added for 2 hours to transfected HEK-293 cells with full length TF (TF) or truncated TF devoid of the intracellular part (ATF).
(Immunoblotting shows a protein as a band on a membrane.)

The next experiment has as its system HUVEC cells. Briefly: HUVEC migration, scratch (artificial gap) assay. The class given is cell-based, human. The following applies: 10 μg/ml; 4 hours; compared to the control and the non-modified peptide 16. As for the experimental part:
FIG. 11 includes micrographs showing that procoagulant peptides increase endothelial cells migration. HUVEC cells were seeded in 35 mm dishes. At confluence of 90%, artificial gap was created using 1,000-μl standard pipette tip. Plate was washed twice with PBS to remove cell debris and incubated with either peptide 16 or 16AC (10 μg/ml). Representative photos of the scratched area after 4 hours are presented. Images were visualized through ×50 magnitude, with 0.82 MDC objective lens, captured with a Nikon E995 digital camera (Nikon, Tokyo, Japan), and processed with Adobe Photoshop software (Adobe Systems, San Jose, CA, USA).
Briefly, HUVEC cells were seeded in 35 mm dishes. At confluence of 90%, artificial gap was created using 1,000 μl standard pipette tip. Plate was washed twice with PBS to remove cell debris and incubated with either peptide 16 or 16AC (10 μg/ml).

The results in this text go back to patent publication US12686704B2, “Procoagulant peptides and use thereof” (RAMBAM MED-TECH LTD., priority 2021, dated 2026).

Regarding “acetyl-GSKRRKLRVYLHCT-amid (Ac-GSKRRKLRVYLHCT-NH2) [Peptide 16AC, peptide 16 comprising a C-terminal amid group and an N-terminal acetyl group]”, in experiment [1], the Angle is 63.1 deg, the K amounted to 2.5 min, the “MA (maximal amplitude)” value turned out to be 53.8 mm and the “R (time to clot formation)” value is on record as 5.6 min. Further, in experiment [1], the SP worked out at 4.7 min; the “thrombus strength (maximal amplitude, MA), in words” value was “increased thrombus strength”; the “time to clot formation (R), in words” value is reported as “significantly reduced the time to clot formation (R)”. Moreover, the “clot formation compared to peptide 16” value in experiment [1] (5 μg/ml, repeated 3 times with different pooled blood, FIG. 1C) is listed as “significant better effect to increase clot formation compared to peptide 16”. Further, the cell proliferation entry in experiment [2] was “significant increase in cell proliferation”. The “increase in p-p38 intracellular signaling” value in experiment [3] is “not observed”. Also, the “migrating HUVEC cells” value in the experiment with HUVEC cells was “substantial increase in migrating HUVEC cells”.

Consider “GSKRRKLRVYLHCT [Peptide 16, peptide comprising the procoagulant domain of heparanase, non-modified]”, for which, in experiment [1], the Angle stood at 63.3 deg, the K is listed as 2.8 min, the “MA (maximal amplitude)” value is given as 50.4 mm and the “R (time to clot formation)” value came out at 6.4 min. In addition, in experiment [1], the SP is listed as 5.2 min; the “thrombus strength (maximal amplitude, MA), in words” value is reported as “increased thrombus strength”; the “time to clot formation (R), in words” value is recorded as “significantly reduced the time to clot formation (R)”. Besides, in experiment [2], the cell proliferation entry is “significant increase in cell proliferation”.
